In US11206830B2, “Herbicidal composition comprising glufosinate or a salt thereof and pyroxasulfone” (BASF SE, priority 2008, dated 2021):

Assays:
Type in all cases: in vivo
[1] = test system: Abutilon theophrasti (ABUTH); assay: greenhouse post-emergence herbicidal activity on ABUTH
From the text: (§1) For the post-emergence treatment, the test plants were first grown to a height of 3 to 20 cm, depending on the plant habit, and only then treated. Here, the herbicidal compositions were suspended or emulsified in water as distribution medium and sprayed using finely distributing nozzles.
(§2) The respective herbicides B and/or safener were formulated as 10% by weight strength suspension concentrate and introduced to the spray liquor with the amount of solvent system used for applying the active compound. Herbicides A, C and/or safener were used as commercially available formulations and introduced to the spray liquor with the amount of solvent system used for applying the active compound. In the examples, the solvent used was water.
(§3) The test period extended over 21 days. During this time, the plants were tended, and their response to the treatments with active compound was evaluated.
(§4) The evaluation for the damage caused by the chemical compositions was carried out using a scale from 0 to 100%, compared to the untreated control plants. Here, 0 means no damage and 100 means complete destruction of the plants.
(§5) The value E, which is to be expected if the activity of the individual compounds is just additive, was calculated using the method of S. R. Colby (1967) “Calculating synergistic and antagonistic responses of herbicide combinations”, Weeds 15, p. 22 ff. For two component mixtures the value E was calculated by the following formula E=X+Y−(X·Y/100)
(§6) For three component mixtures the value E was calculated by the following formula E=X+Y+Z−(XY+XZ+YZ)/100+(X·YZ/10000) where X=effect in percent using herbicide A at an application rate a; • Y=effect in percent using herbicide B at an application rate b; • Z=effect in percent using herbicide C at an application rate c; • E=expected effect (in %) of A+B at application rates a+b. or • E=expected effect (in %) of A+B+C at application rates a+b+c.
(§7) If the value observed in this manner is higher than the value E calculated according to Colby, a synergistic effect is present.
(§8) Tables 1 to 12 relate to the herbicidal activity of the individual actives and of their combinations in post-emergence application assessed 20 DAT.

[2] = test system: Polygonum convolvulus (POLCO); assay: greenhouse post-emergence herbicidal activity on POLCO; settings: Fallopia convolvulus, 480 h, read-out: % activity 20 DAT
From the text: as §1, §2, §3, §4, §5, §6, §7, §8

[3] = test system: Chenopodium album (CHEAL); assay: greenhouse post-emergence herbicidal activity on CHEAL
From the text: as §1, §2, §3, §4, §5, §6, §7, §8

[4] = test system: Digitaria sanguinalis (DIGSA); assay: greenhouse post-emergence herbicidal activity on DIGSA
From the text: as §1, §2, §3, §4, §5, §6, §7, §8

[5] = test system: Alopecurus myosuroides (ALOMY); assay: greenhouse post-emergence herbicidal activity on ALOMY; settings: for inhibition at 6.25 g/ha: read-out: % activity 20 DAT, post-emergence, solo application, 6.25 g ai/ha
From the text: as §1, §2, §3, §4, §5, §6, §7, §8

Avena fatua (AVEFA) = assay: greenhouse post-emergence herbicidal activity on AVEFA; settings: 480 h, read-out: % activity 20 DAT
From the text: as §1, §2, §3, §4, §5, §6, §7, §8

[6] = test system: Lolium multiflorum (LOLMU); assay: greenhouse post-emergence herbicidal activity on LOLMU
From the text: as §1, §2, §3, §4, §5, §6, §7, §8

Galium aparine (GALAP) = assay: greenhouse post-emergence herbicidal activity on GALAP; settings: Galium aparine, 480 h
From the text: as §1, §2, §3, §4, §5, §6, §7, §8

[7] = test system: Matricaria inermis (MATIN); assay: greenhouse post-emergence herbicidal activity on MATIN; settings: for % activity 20 DAT: solo application
From the text: as §1, §2, §3, §4, §5, §6, §7, §8

Sinapis arvensis (SINAR) = assay: greenhouse post-emergence herbicidal activity on SINAR; settings: solo application, 135 g ai/ha
From the text: as §1, §2, §3
The evaluation for the damage caused by the chemical compositions was carried out using a scale from 0 to 100%, compared to the untreated control plants. […]
The value E, which is to be expected if the activity of the individual compounds is just additive, was calculated using the method of S. R. Colby (1967) “Calculating synergistic and antagonistic responses of herbicide combinations”, Weeds 15, p. […] For two component mixtures the value E was calculated by the following formula E=X+Y−(X·Y/100)
as §6, §7, §8

[8] = Digitaria sanguinalis, 480 h, read-out: % activity 20 DAT

SMILES: CCc1nc2c(Cl)cc(Cl)c(-c3nn(C)c(OC(F)F)c3Br)c2o1 [Compound B]
- inhibition at 6.25 g/ha ([1]; Abutilon theophrasti, 480 h, read-out: % activity 20 DAT, post-emergence, solo application, 6.25 g ai/ha): 98%
- inhibition at 6.25 g/ha [2]: 90%
- inhibition at 6.25 g/ha ([3]; Chenopodium album, 480 h, read-out: % activity 20 DAT, post-emergence, solo application, 6.25 g ai/ha): 85%
- inhibition at 6.25 g/ha [4, 8]: 50%
- inhibition at 6.25 g/ha ([5]; Alopecurus myosuroides, 480 h): 20%
- inhibition at 12.5 g/ha ([5]; Alopecurus myosuroides, 480 h, read-out: % activity 20 DAT, post-emergence, solo application, 12.5 g ai/ha): 35%

SMILES: C#CCN1C(=O)COc2cc(F)c(-n3c(=O)n(C)c(=S)n(C)c3=O)cc21 [Compound D]
- inhibition at 3.13 g/ha [2]: 95%
- inhibition at 6.25 g/ha (Avena fatua (AVEFA)): 75%
- inhibition at 3.13 g/ha ([6]; Lolium multiflorum, 480 h, read-out: % activity 20 DAT, post-emergence, solo application, 3.13 g ai/ha): 40%
- inhibition at 3.13 g/ha ([3]; Chenopodium album, 480 h, read-out: % activity 20 DAT, post-emergence, solo application, 3.13 g ai/ha): 45%
- inhibition at 3.13 g/ha [4, 8]: 35%
- inhibition at 3.13 g/ha (Galium aparine (GALAP); read-out: % activity 20 DAT, post-emergence, solo application, 3.13 g ai/ha): 30%
- inhibition at 6.25 g/ha (Galium aparine (GALAP); read-out: % activity 20 DAT, post-emergence, solo application, 6.25 g ai/ha): 30%
- inhibition at 3.13 g/ha ([5]; Alopecurus myosuroides, 480 h, read-out: % activity 20 DAT, post-emergence, solo application, 3.13 g ai/ha): 30%
- inhibition at 6.25 g/ha ([5]; Alopecurus myosuroides, 480 h): 40%

SMILES: CCNc1nc(Cl)nc(NC(C)C)n1 [atrazin]
- inhibition at 62.5 g/ha ([3]; Chenopodium album, 480 h, solo application, 62.5 g ai/ha, read-out: % activity 20 DAT): 20%
- inhibition at 125 g/ha ([3]; Chenopodium album, 480 h, solo application, 125 g ai/ha, read-out: % activity 20 DAT): 60%
- inhibition at 62.5 g/ha ([4]; Digitaria sanguinalis, 480 h, solo application, 62.5 g ai/ha, read-out: % activity 20 DAT): 0%
- inhibition at 250 g/ha ([5]; Alopecurus myosuroides, 480 h, solo application, 250 g ai/ha, read-out: % activity 20 DAT): 50%

SMILES: COc1c(Cl)ccc(Cl)c1C(=O)O [dicamba]
- inhibition at 50 g/ha ([1]; Abutilon theophrasti, 480 h, solo application, 50 g ai/ha, read-out: % activity 20 DAT): 50%
- inhibition at 50 g/ha ([6]; Lolium multiflorum, 480 h, solo application, 50 g ai/ha, read-out: % activity 20 DAT): 0%
- inhibition at 50 g/ha ([3]; Chenopodium album, 480 h, solo application, 50 g ai/ha, read-out: % activity 20 DAT): 50%
- inhibition at 25 g/ha ([5]; Alopecurus myosuroides, 480 h, solo application, 25 g ai/ha, read-out: % activity 20 DAT): 10%
- inhibition at 25 g/ha ([7]; Matricaria, 480 h, read-out: % activity 20 DAT, post-emergence, solo application, 25 g ai/ha): 45%

SMILES: COC[C@H](C)N(C(=O)CCl)c1c(C)csc1C [dimethenamid-P]
- % activity 20 DAT ([1]; solo application, 135 g ai/ha): 15%
- % activity 20 DAT ([1]; solo application, 540 g ai/ha): 15%
- % activity 20 DAT ([6]; solo application, 135 g ai/ha): 60%
- % activity 20 DAT ([3]; solo application, 270 g ai/ha): 20%
- % activity 20 DAT (Sinapis arvensis (SINAR)): 45%
- % activity 20 DAT ([4]; solo application, 135 g ai/ha): 50%
- % activity 20 DAT ([4]; solo application, 270 g ai/ha): 50%
- % activity 20 DAT ([5]; solo application, 270 g ai/ha): 20%
- % activity 20 DAT ([5]; solo application, 540 g ai/ha): 30%
- % activity 20 DAT ([7]; 135 g ai/ha): 0%
- % activity 20 DAT ([7]; 270 g ai/ha): 0%
